Assay results published in patent publication US9662318B2, “Bitopic muscarinic agonists and antagonists and methods of synthesis and use thereof” (BARRY UNIVERSITY, INC., priority 2012, dated 2017).
pIC50, pKi: −log10 of the molar value. Like-named read-outs stand apart in the source and are kept apart here.

Assays:
M4 muscarinic receptor [1] = target: T1, M4 muscarinic receptor (Homo sapiens, UniProt P08173); test: Dissociation of [3H]acetylcholine (full time course kinetics); type: binding; settings: [3H]acetylcholine dissociation
T1 construct: host or cells: Chinese hamster ovary cells
T1 sequence (P08173 1-479): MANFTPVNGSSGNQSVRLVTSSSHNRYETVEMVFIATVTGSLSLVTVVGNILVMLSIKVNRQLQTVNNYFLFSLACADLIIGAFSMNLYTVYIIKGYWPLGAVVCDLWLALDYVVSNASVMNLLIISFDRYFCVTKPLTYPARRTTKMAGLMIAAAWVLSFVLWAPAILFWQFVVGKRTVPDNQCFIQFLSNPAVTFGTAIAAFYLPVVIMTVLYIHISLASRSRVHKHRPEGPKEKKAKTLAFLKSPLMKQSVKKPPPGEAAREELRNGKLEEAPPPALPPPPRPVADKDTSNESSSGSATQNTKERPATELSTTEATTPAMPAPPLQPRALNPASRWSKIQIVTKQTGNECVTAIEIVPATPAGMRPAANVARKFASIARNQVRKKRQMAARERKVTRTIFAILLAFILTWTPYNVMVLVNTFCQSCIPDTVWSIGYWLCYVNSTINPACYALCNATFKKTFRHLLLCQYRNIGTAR
Text: (§1) To probe the ability of JB-D4 to allosterically modulate orthosteric ligand, its effect on the rate of orthosteric radioligand dissociation has been investigated. […] where y is the percentage of radioligand binding at time x of radioligand binding at time 0, koff1 and koff2 are rate dissociation constants and f2 is the percentage of sites with koff2 rate of dissociation. […] y is the percentage of radioligand binding at time x of radioligand binding at time 0, koff is rate dissociation constant and f is percentage of sites with koff rate of dissociation. Eq. 2 was fitted to the data from kinetic experiments. Data are means±SD from 3 independent experiments performed in quadruplicates.

M1 muscarinic receptor [2] = target: T2, M1 muscarinic receptor (Homo sapiens, UniProt P11229); test: as above; type: binding; settings: [3H]acetylcholine dissociation
T2 sequence (P11229 1-460): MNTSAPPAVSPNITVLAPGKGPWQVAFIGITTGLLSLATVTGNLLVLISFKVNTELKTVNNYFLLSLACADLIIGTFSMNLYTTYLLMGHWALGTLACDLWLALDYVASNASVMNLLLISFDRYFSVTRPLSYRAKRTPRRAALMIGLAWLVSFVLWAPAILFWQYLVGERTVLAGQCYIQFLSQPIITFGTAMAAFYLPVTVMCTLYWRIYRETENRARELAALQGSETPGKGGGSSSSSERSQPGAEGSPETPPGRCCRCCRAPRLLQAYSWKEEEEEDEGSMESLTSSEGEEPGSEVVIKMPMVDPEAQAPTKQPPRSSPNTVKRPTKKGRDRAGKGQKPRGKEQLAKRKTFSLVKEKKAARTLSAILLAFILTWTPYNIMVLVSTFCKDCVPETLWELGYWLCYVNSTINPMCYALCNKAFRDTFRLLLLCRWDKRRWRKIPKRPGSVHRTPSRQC
Text: as §1

M5 muscarinic receptor = target: T3, M5 muscarinic receptor (Homo sapiens, UniProt P08912); test: as above; type: binding; settings: [3H]acetylcholine dissociation
T3 construct: host or cells: CHO (Chinese hamster ovary) cells, stably transfected
T3 sequence (P08912 1-532): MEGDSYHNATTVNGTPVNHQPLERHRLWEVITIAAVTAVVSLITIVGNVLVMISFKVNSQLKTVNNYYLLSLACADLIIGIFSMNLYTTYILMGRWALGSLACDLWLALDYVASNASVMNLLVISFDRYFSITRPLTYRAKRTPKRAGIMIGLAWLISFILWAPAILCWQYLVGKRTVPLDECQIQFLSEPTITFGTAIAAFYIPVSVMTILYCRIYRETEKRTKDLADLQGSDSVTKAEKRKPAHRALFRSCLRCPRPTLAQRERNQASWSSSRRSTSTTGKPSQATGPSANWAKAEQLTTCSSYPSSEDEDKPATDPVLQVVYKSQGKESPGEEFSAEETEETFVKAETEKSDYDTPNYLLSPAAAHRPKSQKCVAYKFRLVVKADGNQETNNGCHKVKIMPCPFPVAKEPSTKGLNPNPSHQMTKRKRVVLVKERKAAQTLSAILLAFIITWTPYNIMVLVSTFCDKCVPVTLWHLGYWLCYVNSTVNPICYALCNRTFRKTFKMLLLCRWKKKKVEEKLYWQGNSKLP
Text: as §1

M3 muscarinic receptor [3] = target: T4, M3 muscarinic receptor (Homo sapiens, UniProt P20309); test: as above; type: binding; settings: [3H]acetylcholine dissociation
T4 construct: host or cells: Chinese hamster ovary cells
T4 sequence (P20309 whole entry): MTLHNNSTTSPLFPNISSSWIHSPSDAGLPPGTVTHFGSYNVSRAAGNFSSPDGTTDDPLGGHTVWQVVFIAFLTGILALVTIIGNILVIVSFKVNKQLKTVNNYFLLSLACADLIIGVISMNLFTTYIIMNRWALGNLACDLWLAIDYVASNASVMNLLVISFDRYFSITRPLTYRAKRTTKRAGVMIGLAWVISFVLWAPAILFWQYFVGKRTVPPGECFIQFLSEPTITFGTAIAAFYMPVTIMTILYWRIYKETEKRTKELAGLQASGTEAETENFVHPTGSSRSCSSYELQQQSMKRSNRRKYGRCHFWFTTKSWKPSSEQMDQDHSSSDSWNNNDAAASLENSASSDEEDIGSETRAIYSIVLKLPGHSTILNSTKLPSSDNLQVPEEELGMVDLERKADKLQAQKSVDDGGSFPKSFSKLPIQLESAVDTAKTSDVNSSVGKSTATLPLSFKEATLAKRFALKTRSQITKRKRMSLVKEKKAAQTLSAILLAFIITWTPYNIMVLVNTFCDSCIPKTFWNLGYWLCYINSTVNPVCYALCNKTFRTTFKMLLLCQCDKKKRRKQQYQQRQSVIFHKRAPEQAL
Text: as §1

M4 muscarinic receptor [4] = target: T1, M4 muscarinic receptor; test: Competition with [3H]NMS (equilibrium binding, CHO membranes); settings: for pIC50: competition with [^3H]NMS
Description: (§2) All radioligand binding experiments were optimized and carried out as described earlier. Briefly, membranes were incubated in 96-well plates at 30° C. in the incubation medium described. […] Dissociation was initiated by addition of atropine to final concentration of 5 Tested ligands in final concentration of 100 μM were added concurrently with atropine. Incubations were terminated by filtration through Whatman GF/C glass fiber filters (Whatman) using a Brandel cell harvester (Brandel, Gaithersburg, Md., USA). Filters were dried in vacuum for 1 h while heated at 80° C. and then solid scintillator Meltilex A was melted on filters (105° C., 90 s) using a hot plate. The filters were cooled and counted in Wallac Microbeta scintillation counter.
(§3) Inhibition constant KI was calculated as: […]

M1 muscarinic receptor [5] = target: T2, M1 muscarinic receptor; test: as above; settings: for pIC50: competition with [^3H]NMS
Description: as §2, §3

M3 muscarinic receptor [6] = target: T4, M3 muscarinic receptor; test: as above; settings: for pIC50: competition with [^3H]NMS
Description: as §2, §3

## CCCCOc1ccc(C(=O)OCC[N+]2(C)CCCCC2)cc1.[I-] [JB-D4, 2-(N-piperidineethyl) p-butoxybenzoate N-methyl iodide]
M4 muscarinic receptor [1]; +0.1 mM JB-D4, M4
  f: 81 ± 4%
  koff: 0.003 s⁻¹
M4 muscarinic receptor [1]; +1 mM JB-D4, M4
  f: 86 ± 3%
  koff: 0.000817 s⁻¹
M1 muscarinic receptor [2]; +0.1 mM JB-D4, M1
  f: 90 ± 3%
  koff: 0.00317 s⁻¹
M1 muscarinic receptor [2]; +1 mM JB-D4, M1
  f: 88 ± 3%
  koff: 0.00183 s⁻¹
M5 muscarinic receptor; +0.1 mM JB-D4, M5
  f: 81 ± 3%
M5 muscarinic receptor; +0.1 mM JB-D4, M5, read-out: koff (converted)
  koff: 0.000633 s⁻¹
M5 muscarinic receptor; +1 mM JB-D4, M5
  f: 81 ± 3%
  koff: 0.00055 ± 8.3e-05 s⁻¹
M5 muscarinic receptor; +1 mM JB-D4, M5, read-out: koff (converted)
  koff: 0.00055 s⁻¹
M3 muscarinic receptor [3]; +0.1 mM JB-D4, M3
  f: 84 ± 3%
M3 muscarinic receptor [3]; +0.1 mM JB-D4, M3, read-out: koff (converted)
  koff: 0.00317 s⁻¹
M3 muscarinic receptor [3]; +1 mM JB-D4, M3
  f: 82 ± 3%
  koff: 0.0014 ± 0.00012 s⁻¹
M3 muscarinic receptor [3]; +1 mM JB-D4, M3, read-out: koff (converted)
  koff: 0.0014 s⁻¹
M4 muscarinic receptor [4]; M4, average of 3, read-out: avg IC50
  pIC50: 4.38
M4 muscarinic receptor [4]; M4, experiment 1, read-out: IC50—1
  pIC50: 4.36
M4 muscarinic receptor [4]; M4, experiment 2, read-out: IC50—2
  pIC50: 4.38
M4 muscarinic receptor [4]; M4, experiment 3, read-out: IC50—3
  pIC50: 4.40
M4 muscarinic receptor [4]; read-out: KI
  pKi: 5.12
M1 muscarinic receptor [5]; M1, average of 3, read-out: avg IC50
  pIC50: 4.84
M1 muscarinic receptor [5]; M1, experiment 1, read-out: IC50—1
  pIC50: 4.84
M1 muscarinic receptor [5]; M1, experiment 2, read-out: IC50—2
  pIC50: 4.86
M1 muscarinic receptor [5]; M1, experiment 3, read-out: IC50—3
  pIC50: 4.82
M1 muscarinic receptor [5]; read-out: KI
  pKi: 5.54
M3 muscarinic receptor [6]; M3, average of 3, read-out: avg IC50
  pIC50: 4.77
M3 muscarinic receptor [6]; M3, experiment 1, read-out: IC50—1
  pIC50: 4.78
M3 muscarinic receptor [6]; M3, experiment 2, read-out: IC50—2
  pIC50: 4.76
M3 muscarinic receptor [6]; M3, experiment 3, read-out: IC50—3
  pIC50: 4.77
M3 muscarinic receptor [6]; read-out: KI
  pKi: 5.50
